Laboratory results from patent US12421254B2, “KRAS modulators and uses thereof” (Quanta Therapeutics, Inc., priority 2023, dated 2025).

Experiments:
[1] = target: GST-tagged KRAS-G12D (2-169) (Homo sapiens, UniProt P01116, G12D); assay: Nucleotide exchange assay (NEA), SOS-mediated, HTRF, KRAS G12D; assay type: biochemical; conditions: Table 4; IC50 extracted at 30 min; 20 nM SOScat; read-out: NEA G12D IC50
In short: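 SOS1cat-driven loading of fluorescent GTP-DY-647P1 (150 nM) onto GST-KRAS-G12D (2-169, 0.25 nM) read by time-resolved FRET; SOScat 20 nM, compound preincubated with KRAS 1 h at RT. Signal blanked to no-SOS reactions, normalized to DMSO; IC50 fitted from the 30-min read.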

[2] = target: GST-tagged KRAS-G12V (2-169) (Homo sapiens, UniProt P01116, G12V); assay: Nucleotide exchange assay (NEA), SOS-mediated, HTRF, KRAS G12V; assay type: biochemical; conditions: Table 4; IC50 extracted at 90 min; 80 nM SOS
In short: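 Exchange onto fluorescent GTP-DY-647P1 (150 nM final) catalysed by 80 nM SOS1cat was followed by Tb-anti-GST HTRF at RT for up to 90 min, after 1 h compound pre-incubation with 0.25 nM GST-tagged KRAS-G12V (2-169), pH 7.3. DMSO = 0%, no-SOS blank = 100%; 4-parameter IC50 taken at 90 min.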

[3] = test system: phospho-ERK in GP2D (KRAS-G12D) cells; assay: pERK In Cell Western (ICW) assay (Method B), GP2D; assay type: cell-based
In short: (§1)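 In-cell western read-out: phospho-ERK (800 nm) normalized to DRAQ5 (700 nm) per well, expressed as percent of blank control, IC50 from 4-parameter variable-slope fit. Compounds were applied as ½-log 9-point series for 3 h at 37 °C to cells plated the previous day.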

[4] = test system: phospho-ERK in SW620 (KRAS-G12V) cells; assay: pERK In Cell Western (ICW) assay (Method B), SW620; assay type: cell-based
In short: as §1

[5] = Homo sapiens, SW-620, 3 h, Table 4

Chain of GST-tagged KRAS-G12D (2-169) (P01116 2-169 isoform P01116-2 G12D): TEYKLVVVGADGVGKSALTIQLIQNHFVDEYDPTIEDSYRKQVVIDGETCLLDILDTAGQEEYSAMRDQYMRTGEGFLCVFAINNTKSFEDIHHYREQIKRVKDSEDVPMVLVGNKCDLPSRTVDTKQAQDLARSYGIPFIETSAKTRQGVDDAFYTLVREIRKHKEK
Chain of GST-tagged KRAS-G12V (2-169) (P01116 2-169 isoform P01116-2 G12V): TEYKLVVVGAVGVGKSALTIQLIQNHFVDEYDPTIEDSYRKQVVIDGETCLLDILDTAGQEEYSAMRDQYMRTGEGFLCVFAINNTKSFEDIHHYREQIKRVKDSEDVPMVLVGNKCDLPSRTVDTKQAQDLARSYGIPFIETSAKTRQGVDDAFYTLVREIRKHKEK

With `CCN(c1nc(OCC23CCCN2CCN(C)C3)nc(N2CC3(C2)SCc2sc(N)c(C#N)c23)n1)[C@H](C)c1cccnc1N` (stereo partly drawn) [Compound 223, 2-amino-1′-[4-[[(1R)-1-(2-amino-3-pyridyl)ethyl]-ethyl-amino]-6-[(2-methyl-1,3,4,6,7,8-hexahydropyrrolo[1,2-a]pyrazin-8a-yl)methoxy]-1,3,5-triazin-2-yl]spiro[6H-thieno[3,4-b]thiophene-4,3′-azetidine]-3-carbonitrile] as the molecule, how does the IC50 [1] read?
Its IC50 is under 0.01 µM.

And the IC50 [2]?
Its IC50 is under 0.01 µM.

And the IC50 ([3]; GP2d, 3 h, Table 4)?
Its IC50 is 0.01 to 0.1 µM.

What about the IC50 [4, 5] of the same molecule?
Its IC50 is 0.01 to 0.1 µM.

Which IC50 [1] does the source give for `CCN(c1nc(OC[C@@H]2CC[C@H]3CN(C)CCN23)nc(N2CC3(C2)SCc2sc(N)c(C#N)c23)n1)[C@H](C)c1cccnc1N` (mixture of isomers) [Compound 219, 1′-[4-[[(6SR,8aSR)-2-methyl-3,4,6,7,8,8a-hexahydro-1H-pyrrolo[1,2-a]pyrazin-6-yl]methoxy]-6-[[(1R)-1-(2-amino-3-pyridyl)ethyl]-ethyl-amino]-1,3,5-triazin-2-yl]-2-amino-spiro[6H-thieno[3,4-b]thiophene-4,3′-azetidine]-3-carbonitrile] here?
The IC50 was under 0.01 µM.

What about the IC50 [2] of the same molecule?
The IC50 was under 0.01 µM.

And the IC50 ([3]; GP2d, 3 h, Table 4)?
The IC50 was 0.1 to 1 µM.

What about the IC50 [4, 5] of the same molecule?
Its IC50 is 0.01 to 0.1 µM.

What does the source list for `C[C@@]1(O)C[C@@H](F)CN(c2nc(OC[C@@]34CCCN3C[C@H](F)C4)nc(N3CC4(C3)SCc3sc(N)c(C#N)c34)n2)C1` [Compound 123, 2-amino-1′-[4-[[(2R,8S)-2-fluoro-1,2,3,5,6,7-hexahydropyrrolizin-8-yl]methoxy]-6-[(3R,5R)-5-fluoro-3-hydroxy-3-methyl-1-piperidyl]-1,3,5-triazin-2-yl]spiro[6H-thieno[3,4-b]thiophene-4,3′-azetidine]-3-carbonitrile]?
IC50 [1]: < 0.01 µM; IC50 [2]: < 0.01 µM; IC50 ([3]; GP2d, 3 h, Table 4): 0.01 to 0.1 µM; IC50 [4, 5]: 0.1 to 1 µM

Which results are given for `N#Cc1c(N)sc2c1C1(CC2)CN(c2nc(OC[C@@]34CCCN3C[C@H](F)C4)nc(N3CCCOCC3)n2)C1` [Compound 89, 2-amino-1′-[4-[[(2R,8S)-2-fluoro-1,2,3,5,6,7-hexahydropyrrolizin-8-yl]methoxy]-6-(1,4-oxazepan-4-yl)-1,3,5-triazin-2-yl]spiro[5,6-dihydrocyclopenta[b]thiophene-4,3′-azetidine]-3-carbonitrile]?
IC50 [1]: 0.01 to 0.1 µM; IC50 [2]: < 0.01 µM; IC50 ([3]; GP2d, 3 h, Table 4): 0.1 to 1 µM; IC50 [4, 5]: 0.1 to 1 µM

How did the IC50 [1] turn out when `CC1(O)CCCCN(c2nc(OC[C@@]34CCCN3C[C@H](F)C4)nc(N3CC4(CCc5sc(N)c(C#N)c54)C3)n2)C1` (stereo partly drawn) [Compound 48, 2-amino-1′-[4-(3-hydroxy-3-methyl-azepan-1-yl)-6-[[(2R,8S)-2-fluoro-1,2,3,5,6,7-hexahydropyrrolizin-8-yl]methoxy]-1,3,5-triazin-2-yl]spiro[5,6-dihydrocyclopenta[b]thiophene-4,3′-azetidine]-3-carbonitrile] was run?
The IC50 was 0.01 to 0.1 µM.

And the IC50 [2]?
Its IC50 is under 0.01 µM.

And the IC50 ([3]; GP2d, 3 h, Table 4)?
Its IC50 is 0.1 to 1 µM.

And the IC50 [4, 5]?
The IC50 was 0.1 to 1 µM.

For `C[C@@]1(O)CCCN(c2nc(OCC3(CN4CCOCC4)CC3)nc(N3CC4(C3)c3c(sc(N)c3C#N)CC4(F)F)n2)C1` [Compound 98, 2-amino-5,5-difluoro-1′-[4-[(3R)-3-hydroxy-3-methyl-1-piperidyl]-6-[[1-(morpholinomethyl)cyclopropyl]methoxy]-1,3,5-triazin-2-yl]spiro[6H-cyclopenta[b]thiophene-4,3′-azetidine]-3-carbonitrile], which IC50 [1] is on record?
Its IC50 is under 0.01 µM.

What about the IC50 [2] of the same molecule?
The IC50 was under 0.01 µM.

What about the IC50 ([3]; GP2d, 3 h, Table 4) of the same molecule?
The IC50 was 0.01 to 0.1 µM.

And the IC50 [4, 5]?
Its IC50 is 0.1 to 1 µM.

How did the IC50 [1] turn out when `N#Cc1c(N)sc2c1C1(CN(c3nc(OC[C@@]45CCCN4C[C@H](F)C5)nc(N4CC(=O)Nc5ncccc5C4)n3)C1)SC2` [Compound 189, 2-amino-1′-[4-[[(2R,8S)-2-fluoro-1,2,3,5,6,7-hexahydropyrrolizin-8-yl]methoxy]-6-(2-oxo-3,5-dihydro-1H-pyrido[2,3-e][1,4]diazepin-4-yl)-1,3,5-triazin-2-yl]spiro[6H-thieno[3,4-b]thiophene-4,3′-azetidine]-3-carbonitrile] was run?
The IC50 was 0.1 to 1 µM.

And the IC50 [2]?
Its IC50 is 0.01 to 0.1 µM.

What about the IC50 ([3]; GP2d, 3 h, Table 4) of the same molecule?
Its IC50 is 1 to 20 µM.

What about the IC50 [4, 5] of the same molecule?
Its IC50 is 1 to 20 µM.

For `CC(c1cccnc1N)N(C)c1nc(OC[C@@]23CCCN2C[C@H](F)C3)nc(N2CC3(CCc4sc(N)c(C#N)c43)C2)n1` (single isomer, unassigned) [Compound 100A, 2-amino-1′-[4-[[(1*)-1-(2-amino-3-pyridyl)ethyl]-methyl-amino]-6-[[(2R,8S)-2-fluoro-1,2,3,5,6,7-hexahydropyrrolizin-8-yl]methoxy]-1,3,5-triazin-2-yl]spiro[5,6-dihydrocyclopenta[b]thiophene-4,3′-azetidine]-3-carbonitrile], which IC50 [1] is on record?
The IC50 was under 0.01 µM.

What about the IC50 [2] of the same molecule?
Its IC50 is under 0.01 µM.

What about the IC50 ([3]; Table 4, 3 hours) of the same molecule?
The IC50 was 0.01 to 0.1 µM.

What about the IC50 [4, 5] of the same molecule?
The IC50 was under 0.01 µM.

Which IC50 [1] does the source give for `CC(c1nsnc1N)N(C)c1nc(OC[C@@]23CCCN2C[C@H](F)C3)nc(N2CC3(C2)SCc2sc(N)c(C#N)c23)n1` (stereo partly drawn) [Compound 174, 2-amino-1′-[4-[1-(4-amino-1,2,5-thiadiazol-3-yl)ethyl-methyl-amino]-6-[[(2R,8S)-2-fluoro-1,2,3,5,6,7-hexahydropyrrolizin-8-yl]methoxy]-1,3,5-triazin-2-yl]spiro[6H-thieno[2,3-c]thiophene-4,3′-azetidine]-3-carbonitrile] here?
Its IC50 is under 0.01 µM.

And the IC50 [2]?
Its IC50 is under 0.01 µM.

And the IC50 ([3]; GP2d, 3 h, Table 4)?
Its IC50 is 0.01 to 0.1 µM.

What about the IC50 [4, 5] of the same molecule?
The IC50 was under 0.01 µM.

For `N#CCC1C=C(F)CN(c2nc(OCC3(CN4CCOCC4)CC3)nc(N3CC4(CCc5sc(N)c(C#N)c54)C3)n2)C1` (stereo not drawn) [Compound 65, 2-amino-1′-[4-[3-(cyanomethyl)-5-fluoro-3,6-dihydro-2H-pyridin-1-yl]-6-[[1-(morpholinomethyl)cyclopropyl]methoxy]-1,3,5-triazin-2-yl]spiro[5,6-dihydrocyclopenta[b]thiophene-4,3′-azetidine]-3-carbonitrile], which IC50 [1] is on record?
The IC50 was 0.1 to 1 µM.

What about the IC50 [2] of the same molecule?
Its IC50 is 0.01 to 0.1 µM.

What about the IC50 ([3]; GP2d, 3 h, Table 4) of the same molecule?
Its IC50 is 1 to 20 µM.

And the IC50 [4, 5]?
Its IC50 is 1 to 20 µM.

Which IC50 [1] does the source give for `CCN(c1nc(OC[C@@]23CCCN2C[C@H](F)C3)nc(N2CC3(C2)SCc2sc(N)c(C#N)c23)n1)[C@H](C)c1cccnc1N` [Compound 139A, 2-amino-1′-[4-[[(1*)-1-(2-amino-3-pyridyl)ethyl]-ethyl-amino]-6-[[(2R,8S)-2-fluoro-1,2,3,5,6,7-hexahydropyrrolizin-8-yl]methoxy]-1,3,5-triazin-2-yl]spiro[6H-thieno[3,4-b]thiophene-4,3′-azetidine]-3-carbonitrile] here?
Its IC50 is under 0.01 µM.

What about the IC50 [2] of the same molecule?
The IC50 was under 0.01 µM.

What about the IC50 ([3]; GP2d, 3 h, Table 4) of the same molecule?
Its IC50 is under 0.01 µM.

What about the IC50 [4, 5] of the same molecule?
The IC50 was under 0.01 µM.

Which IC50 [1] does the source give for `N#Cc1c(N)sc2c1C1(CC2)CN(c2nc(OC[C@@]34CCCN3C[C@H](F)C4)nc(N3CCCC4(CC(=O)N4)C3)n2)C1` (stereo partly drawn) [Compound 130, 2-amino-1′-[4-[[(2R,8S)-2-fluoro-1,2,3,5,6,7-hexahydropyrrolizin-8-yl]methoxy]-6-(2-oxo-1,8-diazaspiro[3.5]nonan-8-yl)-1,3,5-triazin-2-yl]spiro[5,6-dihydrocyclopenta[b]thiophene-4,3′-azetidine]-3-carbonitrile] here?
The IC50 was under 0.01 µM.

What about the IC50 [2] of the same molecule?
The IC50 was under 0.01 µM.

What about the IC50 ([3]; GP2d, 3 h, Table 4) of the same molecule?
The IC50 was 0.1 to 1 µM.

And the IC50 [4, 5]?
Its IC50 is 1 to 20 µM.

Which IC50 [1] does the source give for `CC(c1ccnnc1N)N(C)c1nc(OC[C@@]23CCCN2C[C@H](F)C3)nc(N2CC3(CCc4sc(N)c(C#N)c43)C2)n1` (stereo partly drawn) [Compound 109, 2-amino-1′-[4-[1-(3-aminopyridazin-4-yl)ethyl-methyl-amino]-6-[[(2R,8S)-2-fluoro-1,2,3,5,6,7-hexahydropyrrolizin-8-yl]methoxy]-1,3,5-triazin-2-yl]spiro[5,6-dihydrocyclopenta[b]thiophene-4,3′-azetidine]-3-carbonitrile] here?
Its IC50 is under 0.01 µM.

And the IC50 [2]?
The IC50 was under 0.01 µM.

What about the IC50 ([3]; GP2d, 3 h, Table 4) of the same molecule?
Its IC50 is 0.1 to 1 µM.

What about the IC50 [4, 5] of the same molecule?
The IC50 was 0.01 to 0.1 µM.

Which results are given for `CCN(c1nc(OC[C@@]23CCCN2C[C@H](F)C3)nc(N2CC3(C2)c2c(sc(N)c2C#N)CN3C)n1)[C@H](C)c1cccnc1N` [Compound 226, 2-amino-1′-[4-[[(1R)-1-(2-amino-3-pyridyl)ethyl]-ethyl-amino]-6-[[(2R,8S)-2-fluoro-1,2,3,5,6,7-hexahydropyrrolizin-8-yl]methoxy]-1,3,5-triazin-2-yl]-5-methyl-spiro[6H-thieno[2,3-c]pyrrole-4,3′-azetidine]-3-carbonitrile]?
IC50 [1]: < 0.01 µM; IC50 [2]: < 0.01 µM; IC50 ([3]; GP2d, 3 h, Table 4): 0.01 to 0.1 µM; IC50 [4, 5]: 0.01 to 0.1 µM

For `CC(c1cccnc1N)N(CCO)c1nc(OC[C@@]23CCCN2C[C@H](F)C3)nc(N2CC3(CCc4sc(N)c(C#N)c43)C2)n1` (single isomer, unassigned) [Compound 122B, 2-amino-1′-[4-[[(1*)-1-(2-amino-3-pyridyl)ethyl]-(2-hydroxyethyl)amino]-6-[[(2R,8S)-2-fluoro-1,2,3,5,6,7-hexahydropyrrolizin-8-yl]methoxy]-1,3,5-triazin-2-yl]spiro[5,6-dihydrocyclopenta[b]thiophene-4,3′-azetidine]-3-carbonitrile], which IC50 [1] is on record?
The IC50 was under 0.01 µM.

And the IC50 [2]?
The IC50 was under 0.01 µM.

What about the IC50 ([3]; Table 4, 3 hours) of the same molecule?
Its IC50 is 0.01 to 0.1 µM.

What about the IC50 ([4]; Table 4, 3 hours) of the same molecule?
Its IC50 is 0.01 to 0.1 µM.
